Source: patent US20250353855A1, “HETEROCYCLIC AND HETEROARYL COMPOUNDS FOR TREATING HUNTINGTON'S DISEASE” (PTC THERAPEUTICS, INC., priority 2022, published 2025)

Each molecule was assayed on Endogenous Huntingtin Protein (assay: Endogenous Huntingtin Protein Assay (ELISA-based MSD electrochemiluminescence)). Conditions: MSD plates coated with MW1 (expanded polyglutamine) or MAB2166 capture antibody; lysates; read-out: IC50.
Format: cell-based
How it was run: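 Electrochemiluminescence sandwich ELISA for endogenous huntingtin: capture with MW1 (expanded polyglutamine) or MAB2166 antibody at 1 μg/mL, samples incubated overnight at 4° C. Detection with rabbit monoclonal #5656S then goat anti-rabbit SULFO-TAG antibody (each 0.25 μg/mL, 1 h room temperature), read on MSD imager.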

IC50, < 100 nM:
CSc1nc2cc(O)c(-c3cc4ccn([C@H]5CC(C)(C)NC(C)(C)[C@H]5F)c4nn3)cc2s1 [Cpd 99, 6-{7-[(3S,4S)-3-fluoro-2,2,6,6-tetramethylpiperidin-4-yl]-7H-pyrrolo[2,3-c]pyridazin-3-yl}-2-(methylsulfanyl)-1,3-benzothiazol-5-ol]
Cn1cc2cc(-c3cc4ccn([C@H]5CC(C)(C)NC(C)(C)[C@H]5F)c4nn3)c(O)c(F)c2n1 [Cpd 100, 7-fluoro-5-{7-[(3S,4S)-3-fluoro-2,2,6,6-tetramethylpiperidin-4-yl]-7H-pyrrolo[2,3-c]pyridazin-3-yl}-2-methyl-2H-indazol-6-ol]
Cn1cc2cc(-c3cc4c(nn3)N([C@H]3CC(C)(C)NC(C)(C)[C@H]3F)CC4)c(O)c(F)c2n1 [Cpd 101, 7-fluoro-5-{7-[(3S,4S)-3-fluoro-2,2,6,6-tetramethylpiperidin-4-yl]-6,7-dihydro-5H-pyrrolo[2,3-c]pyridazin-3-yl}-2-methyl-2H-indazol-6-ol]
Cc1nc2cc(-c3cc4ccn([C@H]5CC(C)(C)NC(C)(C)[C@H]5F)c4nn3)c(O)c(F)c2o1 [Cpd 102, 7-fluoro-5-{7-[(3S,4S)-3-fluoro-2,2,6,6-tetramethylpiperidin-4-yl]-7H-pyrrolo[2,3-c]pyridazin-3-yl}-2-methyl-1,3-benzoxazol-6-ol]
Cc1nc2cc(-c3cc4c(nn3)N([C@H]3CC(C)(C)NC(C)(C)[C@H]3F)CC4)c(O)c(F)c2o1 [Cpd 103, 7-fluoro-5-{7-[(3S,4S)-3-fluoro-2,2,6,6-tetramethylpiperidin-4-yl]-6,7-dihydro-5H-pyrrolo[2,3-c]pyridazin-3-yl}-2-methyl-1,3-benzoxazol-6-ol]
